The values that follow come from US10689339B2, “Pyrrolidine derivatives” (Hoffmann-La Roche Inc., priority 2016, dated 2020).

The target of this assay is human Cat S (Homo sapiens (Human), UniProt P25774). As to the kind of experiment: Cathepsin enzyme inhibition assay (fluorogenic peptide substrate Z-Val-Val-Arg-AMC). Type of assay: biochemical. The conditions noted are these: enzyme 1 nM, substrate 20 μM, pH 6.5. The procedure: Cathepsin Enzyme Inhibition Assay
human Cat S, sequence (P25774 115-331): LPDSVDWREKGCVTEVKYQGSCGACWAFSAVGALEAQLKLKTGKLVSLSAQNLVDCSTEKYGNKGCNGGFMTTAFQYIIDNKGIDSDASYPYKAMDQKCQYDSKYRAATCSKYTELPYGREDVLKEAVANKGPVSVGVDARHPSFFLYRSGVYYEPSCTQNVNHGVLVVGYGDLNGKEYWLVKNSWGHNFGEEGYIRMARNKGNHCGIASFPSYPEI
Enzyme activity is measured by observing the increase in fluorescence intensity caused by cleavage of a peptide substrate containing a fluorophore whose emission is quenched in the intact peptide.
Assay buffer: 100 mM potassium phosphate pH 6.5, EDTA-Na 5 mM, Triton X-100 0.001%, DTT 5 mM.
Enzymes (all at 1 nM): human and mouse Cathepsin S, Cat K, Cat B, Cat L.
Substrate (20 μM): Z-Val-Val-Arg-AMC, except for Cat K which uses Z-Leu-Arg-AMC (both from Bachem).
AMC=7-Amino-4-Methyl-Coumarin.
Excitation 360 nm, Emission 465 nm.
Enzyme is added to the substance dilutions in 96-well microtitre plates and the reaction is started with substrate. […] IC50 are calculated by standard methods.
Inhibition of human Cat S, mouse Cat S, human Cat K, human Cat B, human Cat L and mouse Cat L have been measured separately.
In turn, `N#CC1(NC(=O)[C@@H]2C[C@@H](S(=O)(=O)c3ccc(-c4ccc5c(c4)OC(F)(F)O5)cc3C(F)(F)F)CN2C(=O)C2(C(F)(F)F)CC2)CC1` [Example 45, (2S,4R)-4-[4-(2,2-Difluoro-benzo[1,3]dioxol-5-yl)-2-trifluoromethyl-benzenesulfonyl]-1-(1-trifluoromethyl-cyclopropanecarbonyl)-pyrrolidine-2-carboxylic acid (1-cyano-cyclopropyl)-amide] gave an IC50 of 1.07 nM.
Consider `Cc1nc(C)c(-c2ccc(S(=O)(=O)[C@@H]3C[C@@H](C(=O)NC4(C#N)CC4)N(C(=O)C4(C(F)(F)F)CC4)C3)c(C(F)(F)F)c2)s1` [Example 48, (2S,4R)-4-[4-(2,4-Dimethyl-thiazol-5-yl)-2-trifluoromethyl-benzenesulfonyl]-1-(1-trifluoromethyl-cyclopropanecarbonyl)-pyrrolidine-2-carboxylic acid (1-cyano-cyclopropyl)-amide], for which the IC50 worked out at 1.17 nM.
`Cc1nc(C)c(-c2ccc(S(=O)(=O)[C@@H]3C[C@@H](C(=O)NC4(C#N)CC4)N(C(=O)C4(C(F)(F)F)CC4)C3)cc2)s1` [Example 49, (2S,4R)—N-(1-cyanocyclopropyl)-4-(4-(2,4-dimethylthiazol-5-yl)phenylsulfonyl)-1-(1-(trifluoromethyl)cyclopropanecarbonyl)pyrrolidine-2-carboxamide] had an IC50 of 0.909 nM. The IC50 values of the last two molecules are within 1.5-fold of each other.
In turn, `Cc1ncc(-c2ccc(S(=O)(=O)[C@@H]3C[C@@H](C(=O)NC4(C#N)CC4)N(C(=O)C4(C(F)(F)F)CC4)C3)cc2)s1` [Example 50, (2S,4R)—N-(1-cyanocyclopropyl)-4-(4-(2-methylthiazol-5-yl)phenylsulfonyl)-1-(1-(trifluoromethyl)cyclopropanecarbonyl)pyrrolidine-2-carboxamide] yielded an IC50 of 0.728 nM.
Regarding `COc1ncc(-c2ccc(S(=O)(=O)[C@@H]3C[C@@H](C(=O)NC4(C#N)CC4)N(C(=O)C4(C(F)(F)F)CC4)C3)cc2)cn1` [Example 51, (2S,4R)—N-(1-cyanocyclopropyl)-4-(4-(2-methoxypyrimidin-5-yl)phenylsulfonyl)-1-(1-(trifluoromethyl)cyclopropanecarbonyl)pyrrolidine-2-carboxamide], inhibition was half-maximal at 0.882 nM (IC50). The IC50 values of the last two molecules are within 1.5-fold of each other.
Turning to `Cc1ncnn1-c1ccc(S(=O)(=O)[C@@H]2C[C@@H](C(=O)NC3(C#N)CC3)N(C(=O)C3(C(F)(F)F)CC3)C2)c(Cl)c1` [Example 52, (2S,4R)-4-(2-chloro-4-(5-methyl-1H-1,2,4-triazol-1-yl)phenylsulfonyl)-N-(1-cyanocyclopropyl)-1-(1-(trifluoromethyl)cyclopropanecarbonyl)pyrrolidine-2-carboxamide], the IC50 is 0.486 nM.
As for `N#CC1(NC(=O)[C@@H]2C[C@@H](S(=O)(=O)c3ccc(-n4ccnn4)cc3C(F)(F)F)CN2C(=O)C2(C(F)(F)F)CC2)CC1` [Example 54, (2S,4R)-4-(4-[1,2,3]Triazol-1-yl-2-trifluoromethyl-benzenesulfonyl)-1-(1-trifluoromethyl-cyclopropanecarbonyl)-pyrrolidine-2-carboxylic acid (1-cyano-cyclopropyl)-amide], the IC50 came to 0.382 nM.
Consider `Cc1noc(C)c1-c1ccc(S(=O)(=O)[C@@H]2C[C@@H](C(=O)NC3(C#N)CC3)N(C(=O)C3(C(F)(F)F)CC3)C2)cc1` [Example 55, (2S,4R)—N-(1-cyanocyclopropyl)-4-(4-(3,5-dimethylisoxazol-4-yl)phenylsulfonyl)-1-(1-(trifluoromethyl)cyclopropanecarbonyl)pyrrolidine-2-carboxamide], for which the IC50 came to 1.44 nM.
As to `N#CC1(NC(=O)[C@@H]2C[C@@H](S(=O)(=O)c3ccc(-c4cnn(C(F)F)c4)cc3C(F)(F)F)CN2C(=O)C2(C(F)(F)F)CC2)CC1` [Example 56, (2S,4R)-4-[4-(1-Difluoromethyl-1Hpyrazol-4-yl)-2-trifluoromethyl-benzenesulfonyl]-1-(1-trifluoromethyl-cyclopropanecarbonyl)-pyrrolidine-2-carboxylic acid (1-cyano-cyclopropyl)-amide], the IC50 is 0.526 nM.
`Cc1nnn(-c2ccc(S(=O)(=O)[C@@H]3C[C@@H](C(=O)NC4(C#N)CC4)N(C(=O)C4(C(F)(F)F)CC4)C3)c(C(F)(F)F)c2)n1` [Example 57, (2S,4R)-4-[4-(5-Methyl-tetrazol-2-yl)-2-trifluoromethyl-benzenesulfonyl]-1-(1-trifluoromethyl-cyclopropanecarbonyl)-pyrrolidine-2-carboxylic acid (1-cyano-cyclopropyl)-amide] returned an IC50 of 0.564 nM.
Regarding `N#CC1(NC(=O)[C@@H]2C[C@@H](S(=O)(=O)c3ccc(-c4c[nH]nc4C(F)(F)F)cc3C(F)(F)F)CN2C(=O)C2(C(F)(F)F)CC2)CC1` [Example 58, (2S,4R)-1-(1-Trifluoromethyl-cyclopropanecarbonyl)-4-[2-trifluoromethyl-4-(3-trifluoromethyl-1Hpyrazol-4-yl)-benzenesulfonyl]-pyrrolidine-2-carboxylic acid (1-cyano-cyclopropyl)-amide], the IC50 turned out to be 2.42 nM.
`Cc1cc(-c2ccccc2CO)ccc1S(=O)(=O)[C@@H]1C[C@@H](C(=O)NC2(C#N)CC2)N(C(=O)C2(C(F)(F)F)CC2)C1` [Example 59, (2S,4R)—N-(1-cyanocyclopropyl)-4-(2′-(hydroxymethyl)-3-methylbiphenyl-4-ylsulfonyl)-1-(1-(trifluoromethyl)cyclopropanecarbonyl)pyrrolidine-2-carboxamide] registered an IC50 of 0.943 nM.
Take `Cc1nc(C)c(-c2ccc(S(=O)(=O)[C@@H]3C[C@@H](C(=O)NC4(C#N)CC4)N(C(=O)C4(C(F)(F)F)CC4)C3)c(C)c2)s1` [Example 60, (2S,4R)—N-(1-cyanocyclopropyl)-4-(4-(2,4-dimethylthiazol-5-yl)-2-methylphenylsulfonyl)-1-(1-(trifluoromethyl)cyclopropanecarbonyl)pyrrolidine-2-carboxamide]: the IC50 turned out to be 0.614 nM. This IC50 lies about 1.5-fold lower than the previous one.
Molecule `Cc1ncc(-c2ccc(S(=O)(=O)[C@@H]3C[C@@H](C(=O)NC4(C#N)CC4)N(C(=O)C4(C(F)(F)F)CC4)C3)c(C)c2)s1` [Example 61, (2S,4R)—N-(1-cyanocyclopropyl)-4-(2-methyl-4-(2-methylthiazol-5-yl)phenylsulfonyl)-1-(1-(trifluoromethyl)cyclopropanecarbonyl)pyrrolidine-2-carboxamide] gave an IC50 of 0.613 nM.
As for `COc1ncc(-c2ccc(S(=O)(=O)[C@@H]3C[C@@H](C(=O)NC4(C#N)CC4)N(C(=O)C4(C(F)(F)F)CC4)C3)c(C)c2)cn1` [Example 62, (2S,4R)—N-(1-cyanocyclopropyl)-4-(4-(2-methoxypyrimidin-5-yl)-2-methylphenylsulfonyl)-1-(1-(trifluoromethyl)cyclopropanecarbonyl)pyrrolidine-2-carboxamide], half-maximal inhibition (IC50) required 0.592 nM.
`Cc1ncc(-c2ccc(S(=O)(=O)[C@@H]3C[C@@H](C(=O)NC4(C#N)CC4)N(C(=O)C4(C(F)(F)F)CC4)C3)c(C(F)(F)F)c2)s1` [Example 63, (2S,4R)-4-[4-(2-Methyl-thiazol-5-yl)-2-trifluoromethyl-benzenesulfonyl]-1-(1-trifluoromethyl-cyclopropanecarbonyl)-pyrrolidine-2-carboxylic acid (1-cyano-cyclopropyl)-amide]: the IC50 is 0.585 nM.
As for `Cc1cc(-c2c(C)noc2C)ccc1S(=O)(=O)[C@@H]1C[C@@H](C(=O)NC2(C#N)CC2)N(C(=O)C2(C(F)(F)F)CC2)C1` [Example 64, (2S,4R)—N-(1-cyanocyclopropyl)-4-(4-(3,5-dimethylisoxazol-4-yl)-2-methylphenylsulfonyl)-1-(1-(trifluoromethyl)cyclopropanecarbonyl)pyrrolidine-2-carboxamide], the IC50 was 0.65 nM.
The molecule `Cc1cc(-n2cnc(Cl)n2)ccc1S(=O)(=O)[C@@H]1C[C@@H](C(=O)NC2(C#N)CC2)N(C(=O)C2(C(F)(F)F)CC2)C1` [Example 66, (2S,4R)-4-(4-(3-chloro-1H-1,2,4-triazol-1-yl)-2-methylphenylsulfonyl)-N-(1-cyanocyclopropyl)-1-(1-(trifluoromethyl)cyclopropanecarbonyl)pyrrolidine-2-carboxamide] showed an IC50 of 223 nM.
For `Cc1cc(-n2cnc(Cl)n2)ccc1S(=O)(=O)[C@@H]1C[C@H](C(=O)NC2(C#N)CC2)N(C(=O)C2(C(F)(F)F)CC2)C1` [Example 67, (2R,4R)-4-(4-(3-chloro-1H-1,2,4-triazol-1-yl)-2-methylphenylsulfonyl)-N-(1-cyanocyclopropyl)-1-(1-(trifluoromethyl)cyclopropanecarbonyl)pyrrolidine-2-carboxamide], the IC50 came out at 542 nM.
In the case of `Cn1cc(-c2ccc(S(=O)(=O)[C@@H]3C[C@@H](C(=O)NC4(C#N)CC4)N(C(=O)C4(C(F)(F)F)CC4)C3)c(C(F)(F)F)c2)c(C(F)(F)F)n1` [Example 68, (2S,4R)-4-[4-(1-Methyl-3-trifluoromethyl-1Hpyrazol-4-yl)-2-trifluoromethyl-benzenesulfonyl]-1-(1-trifluoromethyl-cyclopropanecarbonyl)-pyrrolidine-2-carboxylic acid (1-cyano-cyclopropyl)-amide], the IC50 is 0.829 nM.
With `N#CC1(NC(=O)[C@@H]2C[C@@H](S(=O)(=O)c3ccc(-n4cnc(Cl)n4)cc3)CN2C(=O)C2(C(F)(F)F)CC2)CC1` [Example 69, (2S,4R)-4-(4-(3-chloro-1H-1,2,4-triazol-1-yl)phenylsulfonyl)-N-(1-cyanocyclopropyl)-1-(1-(trifluoromethyl)cyclopropanecarbonyl)pyrrolidine-2-carboxamide], the IC50 amounted to 497 nM.

For orientation: IC50 means the concentration needed to halve the response being measured.
